Legend:
A2780CP cells [1] = test: MTT cell survival assay, CDDP-resistant A2780CP cells; details: increasing amounts of CDDP alone, MTT 24 hr
Procedure: (§1) CDDP-resistant ovarian cancer cell lines A2780CP and C-13 were treated with CDDP at indicated concentrations alone, or in combination with 10 μM API-2. Cell survival was determined 24 hr later by MTT assay.
API-2 was further investigated to determine whether it can overcome CDDP resistance by blocking Akt signaling pathways. A2780CP and C-13 cells were treated with increasing amounts of CDDP alone or in combination with 10 μM API-2.

C-13 cells [2] = test: MTT cell survival assay, CDDP-resistant C-13 cells; details: C-13, increasing amounts of CDDP alone, MTT 24 hr
Procedure: as §1
A2780CP and C-13 cells were treated with increasing amounts of CDDP alone or in combination with 10 μM API-2.

Akt phosphorylation = test: Western blot of MCF-7 lysates for phosphorylated Akt, S6, p70-S6K; format: cell-based, human
Procedure: (A) OVCAR-3 human ovarian cancer and (B) MCF-7 human breast cancer cell lines were treated with mTOR inhibitors rapamycin (OVCAR-3 cells only) or RAD001 (MCF-7 cells only). Cell lysates were probed for phosphorylated and total Akt, and phosphorylated and total S6 at the indicated time points. […] Akt substrate FKHRL1, an apoptotic protein, was also detected.
(A) OVCAR-3 and (B) MCF-7 cells were treated with rapamycin (OVCAR-3 cells only), RAD001 (MCF-7 cells only), API-2, or a combination of API-2 with either rapamycin or RAD001. Akt phosphorylation increased in both cell lines after either rapamycin or RAD001 treatment.
Results of Western Blot for phosphorylated Akt (p-Akt) indicate C-13 and A2780CP cells had high levels of p-Akt. Further, cell survivability after chemotherapy appears directly connected to Akt up-regulation as C-13 had both the highest p-Akt and survivability. […] This caused an increase in p-Akt within 1 hour of treatment, confirming a relationship between p-Akt and cell survival after chemotherapy.

[3] = tested on: MCF-7 human breast cancer; test: Cell number growth over six days, MCF-7 cells; format: cell-based; details: MCF-7, 25 nM RAD001, 5 μM API-2 or combination
C-13 cells [4] = details: C-13, drug individually or combination of both drugs
A2780CP cells [5] = details: drug individually or combination of both drugs

Which “effect on cell survival” value (A2780CP cells [1]) does the source give for `[Cl][Pt+2][Cl].[NH2-].[NH2-]` [CDDP, cis-Diammine-dicholoroplatinum(II)] here?
Its value is “no significant effect on cell survival”.

And the “effect on cell survival” value (C-13 cells [2])?
Its value is “no significant effect on cell survival”.

Which Akt phosphorylation (Akt phosphorylation; MCF-7) does the source give for `CO[C@H]1C[C@@H]2CC[C@@H](C)[C@@](O)(O2)C(=O)C(=O)N2CCCC[C@H]2C(=O)O[C@H]([C@H](C)C[C@@H]2CC[C@@H](OCCO)[C@H](OC)C2)CC(=O)[C@H](C)/C=C(\C)[C@@H](O)[C@@H](OC)C(=O)[C@H](C)C[C@H](C)/C=C/C=C/C=C/1C` [RAD001] here?
Its Akt phosphorylation is “increased with longer exposure time”.

And the “phosphorylated S6” value (Akt phosphorylation; MCF-7, indicated time points)?
Its value is “decreased with exposure”.

What about the “cell growth (cell numbers)” value [3] of the same compound?
The value was “inhibited cell growth”.

How did the “apoptosis (Capase-Glo 3/7)” value (C-13 cells [4]) turn out when `CC(=O)O[C@H]1C(=O)[C@@]2(C)[C@H]([C@H](OC(=O)c3ccccc3)[C@]3(O)C[C@H](OC(=O)[C@H](O)[C@@H](NC(=O)c4ccccc4)c4ccccc4)C(C)=C1C3(C)C)[C@]1(OC(C)=O)CO[C@@H]1C[C@@H]2O` [Taxol] was run?
The value was “increased apoptosis slightly”.

And the “apoptosis (Capase-Glo 3/7)” value (A2780CP cells [5])?
The value was “increased apoptosis slightly”.

Source: US8828451B2, “Akt sensitization of cancer cells” (University of South Florida, priority 2006, dated 2014)
